Read-outs that look alike come from different tables or passages of the source.
What was measured:
[1] = test system: PC3 prostate cancer xenograft tumor
Method: Tumor growth was monitored using VisualSonics Imaging Micro-ultrasound system. […] A control group of mice (G2) received 10 mg/kg docetaxel Q7D×2 intravenously on days 0 and 7. Another control group of mice received 30 mg/kg docetaxel Q7D×2 intravenously on days 0 and 7. […] A final control group that received only API buffer also was included in the study (G1). […] The Median Survival Time (MST) (in days) was calculated by median time to 1500 mm^3 tumor volume based on individual animals in each group. The % T/C is calculated by % T/C=(T/C)×100, where T is the median survival time to 1500 mm^3 tumor volume in the treated group and C is the median survival time to 1500 mm^3 tumor volume in the API buffer control group. By National Cancer Institute (NCI) criteria, a product with a % T/C over 125% is considered active. The Increase in Life Span (ILS) is a measure of anti-tumor activity calculated as [(T−C)/C]×100, where (T−C) is the difference in the median day to 1500 mm^3 tumor volume between the treated (T) and control (C) groups.
A control group of mice were intravenously administered 6 mg/kg Doxil® liposomal doxorubicin on days 0, 7 and 14. […] A final control group that received only API buffer also was include in the study.

[2] = test system: PC-3M-luc-C6 cells; assay: PC-3M-luc-C6 bone metastasis model: survival and bioluminescent imaging; assay type: in vivo, mouse; details: for % survival: day 49
Method: Due to the bioluminescence of the PC-3M-luc-C6 cells, in addition to monitoring the survival of the mice, the mice were imaged to visualize the PC-3M-luc-C6 metastases. Briefly, 7-10 week old nu/nu male mice (Charles River Laboratories) were anesthetized and injected with 3×10^6 PC-3M-luc-C6 cells (a bioluminescent human prostate carcinoma cell line) suspended in 50 μL sterile DPBS by intracardial injection on day 0. Mice were injected into the left ventricle of the heart by non-surgical means to increase the potential for metastasis from PC-3M-luc-C6 cells. The intracardiac injection of tumor cells bypasses the lungs and serves as a method to disperse cells into general circulation in order to allow seeding of metastasis in multiple tissues within an animal. A satisfactory injection into the left ventricle was detectable within minutes by bioluminescent imaging (BLI) and was identified by an immediate but transient systemic bioluminescence over the entire animal, as indicated by complete blue signal BLI of mice. An unsuccessful implantation produced a more localized signal generally isolated and sustained over time solely within the thoracic region of the animal. […] Mice with successful intra-cardiac injection of PC-3Mluc-C6 cells on day 0 (n=10−13 mice/Grp) were imaged twice a week for up to four weeks and subsequently followed up for survival till day 49 and beyond that time point.
On day 14, the mice were subjected to one of several treatment regimens. A set of control mice was administered API buffer (10 mM Hepes and 130 mM NaCl, pH 7.0) only on days 14, 16, 18, 21, 23, 25, 28, 30, and 32.
The in vivo bioluminescent signal from the jaw region of mice corresponds to micrometastases in the dental pulp, mandible or cervical lymph nodes. Lower limb in vivo signals corresponded to metastatic lesions identified in the tibia or femur leg bones. The thoracic signals that are observed in vivo are associated with residual tumor cells that had seeded into the heart, lung or the pleural surface of the chest cavity. Mice with images indicating a successful systemic injection on day 0 and showing in vivo evidence of metastasis by day 29 were included in the analysis of the treatment groups.

[3] = PEGylated rHuPH20 10,000 U/mouse and/or docetaxel 10 mg/kg IV
[4] = PEGylated rHuPH20 10,000 U/mouse and/or Taxotere 10 mg/kg (admixed) IV
[5] = Taxotere 30 mg/kg IV days 14 and 21

CC(=O)O[C@@]12CO[C@@H]1C[C@H](O)[C@@]1(C)C(=O)[C@H](O)C3=C(C)[C@@H](OC(=O)[C@H](O)[C@@H](NC(=O)OC(C)(C)C)c4ccccc4)C[C@@](O)([C@@H](OC(=O)c4ccccc4)[C@H]21)C3(C)C [Taxotere ® (docetaxel), docetaxel]
Average Survival Time (to 1500 mm^3 tumor volume) [1, 3]: 38.96 ± 7.07 | MST (Median Survival Time to 1500 mm^3 tumor volume) [1, 3]: 32.9 days | Tumor volume ([1]; day 4, PEGylated rHuPH20 10,000 U/mouse and/or docetaxel 10 mg/kg IV): 687.27 mm3 | Tumor volume ([1]; day 4, docetaxel 30 mg/kg IV): 497.04 mm3 | Tumor volume ([1]; day 13, PEGylated rHuPH20 10,000 U/mouse and/or docetaxel 10 mg/kg IV): 869.25 mm3 | Tumor volume ([1]; day 13, docetaxel 30 mg/kg IV): 401.12 mm3 | Tumor volume ([1]; day 21, PEGylated rHuPH20 10,000 U/mouse and/or docetaxel 10 mg/kg IV): 1011.1 mm3 | Tumor volume ([1]; day 21, docetaxel 30 mg/kg IV): 409.02 mm3 | Tumor volume ([1]; day 27, PEGylated rHuPH20 10,000 U/mouse and/or docetaxel 10 mg/kg IV): 1260.7 mm3 | Tumor volume ([1]; day 27, docetaxel 30 mg/kg IV): 291.65 mm3 | Tumor volume ([1]; day 35, PEGylated rHuPH20 10,000 U/mouse and/or docetaxel 10 mg/kg IV): 1441.1 mm3 | Tumor volume ([1]; day 35, docetaxel 30 mg/kg IV): 213.73 mm3 | Tumor volume ([1]; day 42, PEGylated rHuPH20 10,000 U/mouse and/or docetaxel 10 mg/kg IV): 1552.1 mm3 | Tumor volume ([1]; day 42, docetaxel 30 mg/kg IV): 147.05 mm3 | Tumor volume ([1]; day 50, docetaxel 30 mg/kg IV): 130.2 mm3 | Tumor volume ([1]; day 61, docetaxel 30 mg/kg IV): 343.03 mm3 | Tumor volume ([1]; day 73, docetaxel 30 mg/kg IV): 865.5 mm3 | Tumor volume ([1]; day −1 (before treatment), PEGylated rHuPH20 10,000 U/mouse and/or docetaxel 10 mg/kg IV): 470.39 mm3 | Tumor volume ([1]; day −1 (before treatment), docetaxel 30 mg/kg IV): 471.34 mm3 | % ILS ([1]; increase in life span vs API buffer control, PEGylated rHuPH20 10,000 U/mouse and/or docetaxel 10 mg/kg): 59% | % T/C ([1]; median survival time vs API buffer control, PEGylated rHuPH20 10,000 U/mouse and/or docetaxel 10 mg/kg): 157% | No. of animals alive at day 49 [2, 4]: 9 | surviving animals at day 29 ([2]; Taxotere 10 mg/kg or PEGylated rHuPH20 10,000 U/mouse alone): 9 out of 12 | No. of animals alive at day 49 [2, 5]: 10 | mice remaining alive at Day 29 [2, 5]: 10 out of 11 | % survival [2, 4]: 75.00% | % survival [2, 5]: 90.91%
